Laboratory results taken from patent US6204067A, “Methods of identifying modulators of the estrogen receptor” (Board of Trustees Operating Michigan State University, priority 1999, dated 2001).

Legend:
[1] = system: yeast vacuoles; assay: Acidification of yeast vacuoles (acridine orange); format: biochemical, S. cerevisiae
Experimental: Vacuoles from S. cerevisiae were prepared from the protease deficient strain BJ2407 (Yeast Genetic Stock Center, University of California, Berkeley) by sequential floatation through 12% and 8% Ficoll 400 cushion as described previously [Roberts et al., Methods Enzymol, 194:644-661 (1991)] with the single modification that 1× protease inhibitor mix and 1 mM DTT was included in each step. […] Acidification was measured using AO as described above. For acidification in chloride-free solution, gluconate or glutamate was used in vesicle buffer instead of chloride.
ATP (1.5 mM) was added at 50 sec to initiate acidification and at 400 sec nigericin (1 μM) was added to dissipate pH gradients.

[2] = Experimental: The lumenal pH (pHL) of liposomes was assayed with pyranine, a fluorescent dye with a pKa~7.3 and a λex =405 nm in its acid form (-3 charge) and a λex =455 nm in its basic form (-4 charge). To prepare pyranine loaded liposomes, lipids (2 mg POPC, 1 mg cholesterol) supplied in chloroform suspension were dried in a round bottom flask under argon for 2 hours. The lipids were then resuspended in acidic or alkaline liposome buffer (300 mM KCl, 20 mM MES, 20 mM MOPS, 20 mM Tricine titrated with KOH to either pH 6.2 or pH 8.1) containing 0.5 mM pyranine. The suspension was incubated at room temperature overnight, then freeze-thawed 6×. Unilamellar liposomies were prepared by extrusion 3× through 2 stacked 100 nm Nucleopore (Corning/Costar Scientific, Acton, Mass.) polycarbonate filters in an Avestin (Vancouver, BC) extruder at 600 PSI.
The pyranine fluorescence was calibrated as a function of pH by diluting the liposomes with pH 6.2 into a weakly buffered solution of identical pH (300 mM KCl, 1 mM MES, 1 mM MOPS, 1 mM Tricine, pH 6.2), 1 μM nigericin to allow rapid equilibration with external pH and 5 mM DPX to quench external pyranine. The ratio of the fluorescence emission at λem =510 nm was monitored with dual excitation wavelengths of λex =405 nm and λex =455 nm. Sequential aliquots of 0.1 mM glycylglycine, pH 8.4 were added to increase pH (See FIG. 5). The fluorescence was measured after each addition and the pH was measured using a pH meter. […] The cahiration curve for the liposomes of lumenal pH 8.1 was generated identically except sequential aliquots of 0.1 mM K-MES pH 5.0 were added for titration and the curve was generated between pH 8.1 and pH 6.4.
To measure the rate of pH dissipation of liposomes with lumenal pH=6.2, the liposomes were diluted in weakly buffered solution of identical pH as described above, but with no nigericin. […] The external pH was shifted to pH 7.3 by addition of 5 mM glycylglycine pH 8.4 and the fluorescence ratio monitored. After 10 minutes, 1 μM nigericin was added to dissipate the remaining pH gradient. The pHL was calculated using the equation pH=x*log(λex =405 nm/[…])+c, were x and c are constants from the least square fit of the titration curve. To measure the rate of pH dissipation of liposomes with pHL =8.1, the identical procedure was followed except 5 mM K-MES pH 5.0 was added to shift the external pH to 6.9.
Liposomes were loaded with pyranine, a hydrophilic, non-permeable fluorescent pH indicator to assay proton permeability. […] Two steps were taken to ensure that only pHL was measured and to permit the discrimination between dissipation of pH gradient and the lysis or dye leakage from liposomes.

[3] = target: T1, estrogen receptor (Homo sapiens, UniProt P03372); conditions: higher affinity; cited from earlier work
T1 sequence (P03372 1-595): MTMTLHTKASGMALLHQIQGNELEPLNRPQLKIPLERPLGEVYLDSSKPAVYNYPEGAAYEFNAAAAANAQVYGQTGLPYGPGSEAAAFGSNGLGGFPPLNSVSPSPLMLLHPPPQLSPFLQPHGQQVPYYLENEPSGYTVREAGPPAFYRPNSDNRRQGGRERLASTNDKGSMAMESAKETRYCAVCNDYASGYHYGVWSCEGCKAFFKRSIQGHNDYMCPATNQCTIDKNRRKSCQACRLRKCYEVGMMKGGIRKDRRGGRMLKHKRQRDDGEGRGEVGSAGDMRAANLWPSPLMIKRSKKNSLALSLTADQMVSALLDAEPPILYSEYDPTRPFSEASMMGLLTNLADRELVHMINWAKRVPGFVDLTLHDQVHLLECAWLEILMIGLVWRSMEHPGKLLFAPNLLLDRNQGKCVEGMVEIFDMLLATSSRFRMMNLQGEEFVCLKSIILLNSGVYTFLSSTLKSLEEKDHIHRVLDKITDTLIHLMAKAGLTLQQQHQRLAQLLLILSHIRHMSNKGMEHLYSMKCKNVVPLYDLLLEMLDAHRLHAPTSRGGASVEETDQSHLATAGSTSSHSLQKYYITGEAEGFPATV

[4] = system: microsomes isolated from MCF-7/ADR cells; assay: In vitro acidification of MCF-7/ADR microsomes (acridine orange quenching); format: biochemical; conditions: for rate of dissipation of pre-existing pH gradient: added 10 minutes after ATP, tamoxifen 8 μM, bafilomycin A1 100 nM
Experimental: Cells were grown in Minimal Essential. Medium supplemented with 10% Fetal Bovine Serum to confluence in 10 level Cell Factories (Nunc, Naperville, Ill.), trypsinized, washed 3× with cold PBS and lysed with a Dounce homogenizer (Pestle A) in 0.25 M sucrose, 20 mM HEPES (pH 7.4), 1 mM DTT, 1 mM EDTA, and 1× protease inhibitor mix (1 μg/ml leupeptin, 1 μ/ml pepstatin A, 1 μg/ml aprotinin, and 16 μM PMSF mixed to 100× before use). The homogenate was centrifuged twice for 10 minutes at 3000×g to remove unbroken cells and nuclei. The supernatant was layered over 20 ml of 0.5 M sucrose (20 mM HEPES (pH 7.4), 1 mM DTT, 1 mM EDTA, 1× protease inhibitor mix) and 1 ml of 2 M sucrose and centrifuged for 1 hour at 100,000 g (Beckman Ti60 Rotor). Microsomes are collected at the 0.5M and 2M interface.
To monitor acidification of the total microsomal fraction, the quenching of AO fluorescence was monitored essentially as described previously [Barasch et al., Nature 352:70-73 (1991)]. Acidic vesicles accumulate AO to high concentrations resulting in the self quenching of the dye and a decrease of the overall fluorescence. Fluorescence was measured on an SLM Aminco-Bowman series 2 luminescence spectrometer with λex =488 nm and λem =530 nm Microsomes (80 μg protein) were suspended in 2.5 ml vesicle buffer (125 mM KCl, 5 mM MgCl2, 20 mM HEPES (pH 7.4), 1 mM DTT, 1 mM EDTA, 2 mM NaN3), with 6 μM AO (5 mM stock in H2 O) in a cuvet. […] After equilibration for 30 minutes at 25° C. 1 mM Tris-ATP was added to begin acidification (100 mM stock, titrated to pH 7.4 with 1 M Tris-base before use). Twenty minutes later, 2.5 μM of nigericin (10 mM stock in EtOH) was added to dissipate any ΔpH formation.
Acridine orange (AO) was used as a probe for lumenal acidification. As vesicles acidify, they accumulate AO to self-quenching concentrations, and deplete the extra-vesicular free AO, resulting in a decrease in total fluorescence. Acidification was initiated by the addition of ATP to a purified microsomal fraction in the absence of cytosol (FIG. 1A, at t=300 sec). […] Nigericin, a K^+ /H^+ exchanger that rapidly dissipates pH gradients, was added at the end of each reaction (t=1500 seconds).

[5] = Liposome chloride concentration (lucigenin); conditions: after addition of 50 mM KCl; tamoxifen 2, 4, 8 μM, valinomycin 1 μM

Cl.N [ammonium chloride]
effect of addition to pre-acidified vacuoles ([1]; added at 250 sec, tamoxifen 2 μM, ammonium 1 mM): step alkalinization
concentration relative to tamoxifen for similar inhibition ([1]; ammonium chloride 1 mM): 1000 fold
inhibition of vacuole acidification ([1]; pre-equilibrated, tamoxifen 2 μM or 8 μM, ammonium chloride 1 mM): slightly inhibited
effect of addition on pHL without pre-existing pH gradient ([2]; pHL 6.2 = external pH, tamoxifen 2 μM, 8 μM, NH4Cl 5 mM): alkalinization of the lumen

CC/C(=C(/c1ccc(OCCN(C)C)cc1)c1cccc(O)c1)c1ccccc1 [Droloxifene, 3-hydroxytamoxifen]
binding affinity to the estrogen receptor relative to tamoxifen [3]: 10-60 fold

CO/C1=C\C(C)=C\[C@@H](C)[C@@H](O)[C@@H](C)C/C(C)=C/C=C/[C@H](OC)[C@@H]([C@@H](C)[C@@H](O)[C@H](C)[C@@]2(O)C[C@@H](O)[C@H](C)[C@@H](C(C)C)O2)OC1=O [bafilomycin A1, Bafilomycin A1]
acidification blocked ([4]; 10 nM (one tenth of 100 nM), pre-treatment, FIG. 1A): 95%
rate of dissipation of pre-existing pH gradient [4]: much slower rate

CO[C@@H]1C[C@@H](C[C@H]2CC[C@H](C)[C@H]([C@@H](C)C(=O)O)O2)O[C@]2(O[C@](C)([C@H]3CC[C@@](C)([C@@H]4O[C@@H]([C@H]5O[C@@](O)(CO)[C@H](C)C[C@@H]5C)C[C@@H]4C)O3)C[C@H]2C)[C@@H]1C [nigericin]
rate of dissipation of pre-existing pH gradient [4]: significantly faster than tamoxifen

CC[C@@]1([C@@H]2O[C@@H]([C@H]3O[C@@](O)(CO)[C@H](C)C[C@@H]3C)C[C@@H]2C)CC[C@H]([C@]2(C)CC[C@]3(C[C@H](O)[C@@H](C)[C@@H]([C@@H](C)[C@@H](OC)[C@H](C)C(=O)O)O3)O2)O1 [monensin]
rate of dissipation of pre-existing pH gradient [4]: significantly faster than tamoxifen

CC(C)[C@@H]1NC(=O)[C@H](C)OC(=O)[C@@H](C(C)C)NC(=O)[C@@H](C(C)C)OC(=O)[C@H](C(C)C)NC(=O)[C@H](C)OC(=O)[C@@H](C(C)C)NC(=O)[C@@H](C(C)C)OC(=O)[C@H](C(C)C)NC(=O)[C@H](C)OC(=O)[C@@H](C(C)C)NC(=O)[C@@H](C(C)C)OC1=O [valinomycin]
effect on pHL after shift of external pH ([2]; pHL 6.2, external pH shifted to 7.3, tamoxifen 0.5 or 2 μM, NH4Cl 1 mM, FCCP 1 μM, valinomycin 1 μM): faster dissipation of the pH gradient than FCCP
rate of pH gradient dissipation, alkaline lumen ([2]; pHL 8.1, external pH shifted to 6.9, tamoxifen 0.5-8 μM, NH4Cl 5 mM, FCCP 1 μM, valinomycin 1 μM): greater dissipation of pH gradient than FCCP
rate of chloride influx into liposomes [5]: increased the rate of chloride equilibration
